Consider 15 molecules from US20140221361A1, “C-19 MODIFIED TRITERPENOIDS WITH HIV MATURATION INHIBITORY ACTIVITY” (priority 2013, published 2014).

pEC50: −log10 of the molar value.

As a reminder, the pEC50 is −log10 of the EC50, conventionally taken in molar units.

This test concerns recombinant NL4-3 virus (Renilla luciferase in nef, Gag P373S). In words: HIV cell culture assay (luciferase reporter, MT-2 cells). The test is classed as cell-based, HIV-1. The following applies: Renilla, NL43, MT-2 cells infected for 4-5 days with NLRluc recombinants; luciferase activity; serial dilutions of inhibitor. The gist of the method:
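MT-2 cells infected with recombinant NL4-3 carrying Renilla luciferase in place of part of nef and Gag P373S, virus made by 293T transfection. Infection ran 4-5 days with serial inhibitor dilutions. Antiviral activity read as luciferase activity (Dual Luciferase reagents mixed with lysis buffer).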
Background: A reporter such as luciferase makes a cellular process visible.
As to `C/C=C1\CC[C@]2(NCCN3CCS(=O)(=O)CC3)CC[C@]3(C)[C@H](CC[C@@H]4[C@@]5(C)CC=C(c6ccc(C(=O)O)cc6)C(C)(C)[C@@H]5CC[C@]43C)[C@@H]12` [Example B13, 4-((3aS,5aR,5bR,7aR,11aS,11bR,13aR,13bS)-3a-((2-(1,1-dioxidothiomorpholino)ethyl)amino)-1-ethylidene-5a,5b,8,8,11a-pentamethyl-2,3,3a,4,5,5a,5b,6,7,7a,8,11,11a,11b,12,13,13a,13b-octadecahydro-1H-cyclopenta[a]chrysen-9-yl)benzoic acid], the pEC50 is 8.00.
For the molecule `CC1(C)C(c2ccc(C(=O)O)cc2)=CC[C@]2(C)[C@H]3CC[C@@H]4[C@H]5[C@H](C(=O)O)CC[C@]5(NCCN5CCS(=O)(=O)CC5)CC[C@@]4(C)[C@]3(C)CC[C@@H]12` [Example B17, (1R,3aS,5aR,5bR,7aR,11aS,11bR,13aR,13bS)-9-(4-carboxyphenyl)-3a-((2-(1,1-dioxidothiomorpholino)ethyl)amino)-5a,5b,8,8,11a-pentamethyl-2,3,3a,4,5,5a,5b,6,7,7a,8,11,11a,11b,12,13,13a,13b-octadecahydro-1H-cyclopenta[a]chrysene-1-carboxylic acid], the pEC50 is 5.68.
Turning to `CC([C@@H]1CC[C@]2(NCCN3CCS(=O)(=O)CC3)CC[C@]3(C)[C@H](CC[C@@H]4[C@@]5(C)CC=C(c6ccc(C(=O)O)cc6)C(C)(C)[C@@H]5CC[C@]43C)[C@@H]12)N1CCOCC1` (stereo partly drawn) [Example B20, 4-((1R,3aS,5aR,5bR,7aR,11aS,11bR,13aR,13bS)-3a-((2-(1,1-dioxidothiomorpholino)ethyl)amino)-5a,5b,8,8,11a-pentamethyl-1-(1-morpholinoethyl)-2,3,3a,4,5,5a,5b,6,7,7a,8,11,11a,11b,12,13,13a,13b-octadecahydro-1H-cyclopenta[a]chrysen-9-yl)benzoic acid], the pEC50 was 8.69.
Consider `CC(=O)NC(C)[C@@H]1CC[C@]2(NCCN3CCS(=O)(=O)CC3)CC[C@]3(C)[C@H](CC[C@@H]4[C@@]5(C)CC=C(c6ccc(C(=O)O)cc6)C(C)(C)[C@@H]5CC[C@]43C)[C@@H]12` (stereo partly drawn) [Example B21, 4-((1R,3aS,5aR,5bR,7aR,11aS,11bR,13aR,13bS)-1-(1-acetamidoethyl)-3a-((2-(1,1-dioxidothiomorpholino)ethyl)amino)-5a,5b,8,8,11a-pentamethyl-2,3,3a,4,5,5a,5b,6,7,7a,8,11,11a,11b,12,13,13a,13b-octadecahydro-1H-cyclopenta[a]chrysen-9-yl)benzoic acid], for which the pEC50 was 8.09.
As to `COC(=O)NC(C)[C@@H]1CC[C@]2(NCCN3CCS(=O)(=O)CC3)CC[C@]3(C)[C@H](CC[C@@H]4[C@@]5(C)CC=C(c6ccc(C(=O)O)cc6)C(C)(C)[C@@H]5CC[C@]43C)[C@@H]12` (stereo partly drawn) [Example B22, 4-((1R,3aS,5aR,5bR,7aR,11aS,11bR,13aR,13bS)-3a-((2-(1,1-dioxidothiomorpholino)ethyl)amino)-1-(1-((methoxycarbonyl)amino)ethyl)-5a,5b,8,8,11a-pentamethyl-2,3,3a,4,5,5a,5b,6,7,7a,8,11,11a,11b,12,13,13a,13b-octadecahydro-1H-cyclopenta[a]chrysen-9-yl)benzoic acid], the pEC50 was 8.99.
The figure for `CC(NC(=O)C(F)(F)F)[C@@H]1CC[C@]2(NCCN3CCS(=O)(=O)CC3)CC[C@]3(C)[C@H](CC[C@@H]4[C@@]5(C)CC=C(c6ccc(C(=O)O)cc6)C(C)(C)[C@@H]5CC[C@]43C)[C@@H]12` (stereo partly drawn) [Example B23, 4-((1R,3aS,5aR,5bR,7aR,11aS,11bR,13aR,13bS)-3a-((2-(1,1-dioxidothiomorpholino)ethyl)amino)-5a,5b,8,8,11a-pentamethyl-1-(1-(2,2,2-trifluoroacetamido)ethyl)-2,3,3a,4,5,5a,5b,6,7,7a,8,11,11a,11b,12,13,13a,13b-octadecahydro-1H-cyclopenta[a]chrysen-9-yl)benzoic acid] is 8.94; for `CC1(C)C(c2ccc(C(=O)O)cc2)=CC[C@]2(C)[C@H]3CC[C@@H]4[C@H]5[C@H](C(=O)COS(=O)O)CC[C@]5(NCCN5CCS(=O)(=O)CC5)CC[C@@]4(C)[C@]3(C)CC[C@@H]12` [Example B24, 4-((1R,3aS,5aR,5bR,7aR,11aS,11bR,13aR,13bS)-3a-((2-(1,1-dioxidothiomorpholino)ethyl)amino)-5a,5b,8,8,11a-pentamethyl-1-(2-(sulfinooxy)acetyl)-2,3,3a,4,5,5a,5b,6,7,7a,8,11,11a,11b,12,13,13a,13b-octadecahydro-1H-cyclopenta[a]chrysen-9-yl)benzoic acid] it is 6.00.
Regarding `CC1(C)C(c2ccc(C(=O)O)cc2)=CC[C@]2(C)[C@H]3CC[C@@H]4[C@H]5[C@H](C(=O)CO)CC[C@]5(NCCN5CCS(=O)(=O)CC5)CC[C@@]4(C)[C@]3(C)CC[C@@H]12` [Example B25, 4-((1R,3aS,5aR,5bR,7aR,11aS,11bR,13aR,13bS)-3a-((2-(1,1-dioxidothiomorpholino)ethyl)amino)-1-(2-hydroxyacetyl)-5a,5b,8,8,11a-pentamethyl-2,3,3a,4,5,5a,5b,6,7,7a,8,11,11a,11b,12,13,13a,13b-octadecahydro-1H-cyclopenta[a]chrysen-9-yl)benzoic acid], the pEC50 was 6.96.
The figure for `COC(=O)N[C@@H]1CC[C@]2(NCCN3CCS(=O)(=O)CC3)CC[C@]3(C)[C@H](CC[C@@H]4[C@@]5(C)CC=C(c6ccc(C(=O)O)cc6)C(C)(C)[C@@H]5CC[C@]43C)[C@@H]12` [Example B26, 4-((1R,3aR,5aR,5bR,7aR,11aS,11bR,13aR,13bS)-3a-((2-(1,1-dioxidothiomorpholino)ethyl)amino)-1-((methoxycarbonyl)amino)-5a,5b,8,8,11a-pentamethyl-2,3,3a,4,5,5a,5b,6,7,7a,8,11,11a,11b,12,13,13a,13b-octadecahydro-1H-cyclopenta[a]chrysen-9-yl)benzoic acid] is 8.55; for `CC1(C)C(c2ccc(C(=O)O)cc2)=CC[C@]2(C)[C@H]3CC[C@@H]4[C@H]5[C@H](C(=O)N6CCOCC6)CC[C@]5(NCCN5CCS(=O)(=O)CC5)CC[C@@]4(C)[C@]3(C)CC[C@@H]12` [Example B27, 4-((1R,3aS,5aR,5bR,7aR,11aS,11bR,13aR,13bS)-3a-((2-(1,1-dioxidothiomorpholino)ethyl)amino)-5a,5b,8,8,11a-pentamethyl-1-(morpholine-4-carbonyl)-2,3,3a,4,5,5a,5b,6,7,7a,8,11,11a,11b,12,13,13a,13b-octadecahydro-1H-cyclopenta[a]chrysen-9-yl)benzoic acid] it is 8.09; for `CNC(=O)[C@@H]1CC[C@]2(NCCN3CCS(=O)(=O)CC3)CC[C@]3(C)[C@H](CC[C@@H]4[C@@]5(C)CC=C(c6ccc(C(=O)O)cc6)C(C)(C)[C@@H]5CC[C@]43C)[C@@H]12` [Example B28, 4-((1R,3aS,5aR,5bR,7aR,11aS,11bR,13aR,13bS)-3a-((2-(1,1-dioxidothiomorpholino)ethyl)amino)-5a,5b,8,8,11a-pentamethyl-1-(methylcarbamoyl)-2,3,3a,4,5,5a,5b,6,7,7a,8,11,11a,11b,12,13,13a,13b-octadecahydro-1H-cyclopenta[a]chrysen-9-yl)benzoic acid] it is 6.96.
On to `CNC(=O)N[C@@H]1CC[C@]2(NCCN3CCS(=O)(=O)CC3)CC[C@]3(C)[C@H](CC[C@@H]4[C@@]5(C)CC=C(c6ccc(C(=O)O)cc6)C(C)(C)[C@@H]5CC[C@]43C)[C@@H]12` [Example B29, 4-((1R,3aR,5aR,5bR,7aR,11aS,11bR,13aR,13bS)-3a-((2-(1,1-dioxidothiomorpholino)ethyl)amino)-5a,5b,8,8,11a-pentamethyl-1-(3-methylureido)-2,3,3a,4,5,5a,5b,6,7,7a,8,11,11a,11b,12,13,13a,13b-octadecahydro-1H-cyclopenta[a]chrysen-9-yl)benzoic acid], for which the pEC50 is 7.52.
For `CC1(C)C(c2ccc(C(=O)O)cc2)=CC[C@]2(C)[C@H]3CC[C@@H]4[C@H]5[C@H](NC(=O)N6CCCC6)CC[C@]5(NCCN5CCS(=O)(=O)CC5)CC[C@@]4(C)[C@]3(C)CC[C@@H]12` [Example B30, 4-((1R,3aR,5aR,5bR,7aR,11aS,11bR,13aR,13bS)-3a-((2-(1,1-dioxidothiomorpholino)ethyl)amino)-5a,5b,8,8,11a-pentamethyl-1-(pyrrolidine-1-carboxamido)-2,3,3a,4,5,5a,5b,6,7,7a,8,11,11a,11b,12,13,13a,13b-octadecahydro-1H-cyclopenta[a]chrysen-9-yl)benzoic acid], the pEC50 is 8.53.
Turning to `CC1(C)C(c2ccc(C(=O)O)cc2)=CC[C@]2(C)[C@H]3CC[C@@H]4[C@H]5[C@H](c6nnco6)CC[C@]5(NCCN5CCS(=O)(=O)CC5)CC[C@@]4(C)[C@]3(C)CC[C@@H]12` [Example B31, 4-((1R,3aS,5aR,5bR,7aR,11aS,11bR,13aR,13bS)-3a-((2-(1,1-dioxidothiomorpholino)ethyl)amino)-5a,5b,8,8,11a-pentamethyl-1-(1,3,4-oxadiazol-2-yl)-2,3,3a,4,5,5a,5b,6,7,7a,8,11,11a,11b,12,13,13a,13b-octadecahydro-1H-cyclopenta[a]chrysen-9-yl)benzoic acid], the pEC50 is 7.52.
Regarding `CC([C@@H]1CC[C@]2(NCCN3CCS(=O)(=O)CC3)CC[C@]3(C)[C@H](CC[C@@H]4[C@@]5(C)CC=C(c6ccc(C(=O)O)cc6)C(C)(C)[C@@H]5CC[C@]43C)[C@@H]12)N1CCCC1=O` (stereo partly drawn) [Example B32, 4-((1R,3aS,5aR,5bR,7aR,11aS,11bR,13aR,13bS)-3a-((2-(1,1-dioxidothiomorpholino)ethyl)amino)-5a,5b,8,8,11a-pentamethyl-1-(1-(2-oxopyrrolidin-1-yl)ethyl)-2,3,3a,4,5,5a,5b,6,7,7a,8,11,11a,11b,12,13,13a,13b-octadecahydro-1H-cyclopenta[a]chrysen-9-yl)benzoic acid], the pEC50 is 8.55.
